Drawing on ChEMBL document CHEMBL2440048 (J Med Chem, 2013), this text covers IC50 for 2 compounds.

The assay in a line: Inhibition of RyR2 R4496C mutant (unknown origin)-mediated store-overload induced calcium release expressed in HEK293 cells after 8 to 10 mins by fura-2/AM dye-based fluorescence assay. In kind it is cell-based. The conditions noted are these: Homo sapiens.

Structures are written as SMILES.

What is called IC50 is the point on the concentration scale where inhibition reaches its midpoint. For the compound `COc1ccccc1OCCNCC(O)COc1ccc2[nH]cnc2c1` (configuration not stated), the IC50 is above 1000 µM.
As for `COc1ccc2c(c1)N(C)CCCS2`, the figure is above 1000 µM.
